In patent US20090252687A1, “ASYMMETRIC FLUORO-SUBSTITUTED POLYMETHINE DYES” (priority 2006, published 2009):

Experiment: Photostability of the fluorescence signal
Assay type: physicochemical
Conditions: 1:1 methanol:water; Karl Storz Xenon 175 light source at 100% intensity for 30 min; fraction of dark control
Experimental: In a further example the photostability of the fluorescence signal was measured. The photostability of Compound 3 (the fluorinated Cy3F pyrylium of Example 19) was studied in comparison with a non-fluorinated analogue, Cy3 pyrylium (Compound C)
The dyes were dissolved in a 1:1 mixture of methanol:water to give an absorbance reading of 1Au at the dyes lambda max and then diluted 20 times for fluorescence measurements. The samples were exposed to light with a Karl Storz Xenon 175 light source at 100% intensity for 30 min. The cuvette was kept in a water bath while exposed to light, to avoid heating. Fluorescence measurements were made on Cary Eclipse (Varian) fluorescence spectrophotometer 1 cm cuvette, ex/em slit 5 nm

| SMILES | max fluorescence intensity relative to the dark control (photostability) |
| --- | --- |
| CN(C)c1ccc2c(c1)OC(C(C)(C)C)=C/C2=C\C=C\C1=[N+](CCCCCC(=O)O)c2c(F)c(F)c(F)c(F)c2C1(C)CCCCS(=O)(=O)[O-] (centres unmarked) [Compound 3, 4-[2-{(1E,3E)-3-[2-tert-butyl-7-(dimethylamino)-4H-chromen-4-ylidene]prop-1-enyl}-1-(5-carboxypentyl)-4,5,6,7-tetrafluoro-3-methyl-3H-indolium-3-yl]butane-1-sulfonate] | 0.94 |
| CN(C)c1ccc2c(c1)OC(C(C)(C)C)=C/C2=C\C=C\C1=[N+](CCCCCC(=O)O)c2ccc(S(=O)(=O)[O-])cc2C1(C)C [Compound C] | 0.79 |
